Results from PubChem BioAssay (NCI).
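A five-concentration, 48-hour dose response in 96-well plates underlies each endpoint, interpolated linearly between surrounding concentrations. Abbreviation: GI50, concentration required for 50% inhibition of growth. TGI denotes the concentration required for complete inhibition of growth.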

Legend:
Assay in all cases: inhibition of tumour cell growth, NCI panel, 48 h
[1] = tested on: 786-0 renal
[2] = tested on: A498 renal
[3] = tested on: A549 NSCLC
[4] = tested on: ACHN renal
[5] = tested on: BT-549 breast
[6] = tested on: CAKI-1 renal
[7] = tested on: COLO 205 colon
[8] = tested on: DU-145 prostate
[9] = tested on: EKVX NSCLC
[10] = tested on: HCC-2998 colon
[11] = tested on: HCT-116 colon
[12] = tested on: HCT-15 colon
[13] = tested on: HL-60(TB) leukemia
[14] = tested on: HOP-62 NSCLC
[15] = tested on: HOP-92 NSCLC
[16] = tested on: HS 578T breast
[17] = tested on: HT29 colon
[18] = tested on: IGROV1 ovarian
[19] = tested on: K-562 leukemia
[20] = tested on: KM12 colon
[21] = tested on: LOX IMVI melanoma
[22] = tested on: M14 melanoma
[23] = tested on: MALME-3M melanoma
[24] = tested on: MCF7 breast
[25] = tested on: MDA-MB-231 breast
[26] = tested on: MDA-MB-435
[27] = tested on: MOLT-4 leukemia
[28] = tested on: NCI-H226 lung
[29] = tested on: NCI-H23 lung
[30] = tested on: NCI-H460 lung
[31] = tested on: NCI-H522 lung
[32] = tested on: NCI/ADR-RES ovarian
[33] = tested on: OVCAR-3 ovarian
[34] = tested on: OVCAR-4 ovarian
[35] = tested on: OVCAR-5 ovarian
[36] = tested on: OVCAR-8 ovarian
[37] = tested on: PC-3 prostate
[38] = tested on: RPMI-8226 leukemia
[39] = tested on: RXF 393 renal
[40] = tested on: SF-268 CNS
[41] = tested on: SF-295 CNS
[42] = tested on: SF-539 CNS
[43] = tested on: SK-MEL-2 melanoma
[44] = tested on: SK-MEL-28 melanoma
[45] = tested on: SK-MEL-5 melanoma
[46] = tested on: SK-OV-3 ovarian
[47] = tested on: SN12C renal
[48] = tested on: SNB-19 CNS
[49] = tested on: SNB-75 CNS
[50] = tested on: SW-620 colon
[51] = tested on: T-47D breast
[52] = tested on: TK-10 renal
[53] = tested on: U251 CNS
[54] = tested on: UACC-257 melanoma
[55] = tested on: UACC-62 melanoma
[56] = tested on: UO-31 renal

CCCCCCCCCCCCOC1C(CNC(=O)C2OC3OC(C)(C)OC3C2NC(=O)Nc2ccc(CC(=O)NC(Cc3ccccc3)C(=O)O)cc2)OC2OC(C)(C)OC21 (configuration not stated)
GI50 [1]: > 25 µM
TGI [1]: > 25 µM
GI50 [2]: > 25 µM
TGI [2]: > 25 µM
GI50 [3]: > 25 µM
TGI [3]: > 25 µM
GI50 [4]: > 25 µM
TGI [4]: > 25 µM
GI50 [5]: 22.7 µM
TGI [5]: > 25 µM
GI50 [6]: > 25 µM
TGI [6]: > 25 µM
GI50 [7]: > 25 µM
TGI [7]: > 25 µM
GI50 [8]: > 25 µM
TGI [8]: > 25 µM
GI50 [9]: > 25 µM
TGI [9]: > 25 µM
GI50 [10]: > 25 µM
TGI [10]: > 25 µM
GI50 [11]: > 25 µM
TGI [11]: > 25 µM
GI50 [12]: > 25 µM
TGI [12]: > 25 µM
GI50 [13]: > 25 µM
TGI [13]: > 25 µM
GI50 [14]: > 25 µM
TGI [14]: > 25 µM
GI50 [15]: > 25 µM
TGI [15]: > 25 µM
GI50 [16]: 9.2 µM
TGI [16]: > 25 µM
GI50 [17]: > 25 µM
TGI [17]: > 25 µM
GI50 [18]: 22.5 µM
TGI [18]: > 25 µM
GI50 [19]: > 25 µM
TGI [19]: > 25 µM
GI50 [20]: > 25 µM
TGI [20]: > 25 µM
GI50 [21]: > 25 µM
TGI [21]: > 25 µM
GI50 [22]: > 25 µM
TGI [22]: > 25 µM
GI50 [23]: > 25 µM
TGI [23]: > 25 µM
GI50 [24]: > 25 µM
TGI [24]: > 25 µM
GI50 [25]: > 25 µM
TGI [25]: > 25 µM
GI50 [26]: > 25 µM
TGI [26]: > 25 µM
GI50 [27]: > 25 µM
TGI [27]: > 25 µM
GI50 [28]: > 25 µM
TGI [28]: > 25 µM
GI50 [29]: > 25 µM
TGI [29]: > 25 µM
GI50 [30]: > 25 µM
TGI [30]: > 25 µM
GI50 [31]: > 25 µM
TGI [31]: > 25 µM
GI50 [32]: > 25 µM
TGI [32]: > 25 µM
GI50 [33]: > 25 µM
TGI [33]: > 25 µM
GI50 [34]: > 25 µM
TGI [34]: > 25 µM
GI50 [35]: > 25 µM
TGI [35]: > 25 µM
GI50 [36]: > 25 µM
TGI [36]: > 25 µM
GI50 [37]: > 25 µM
TGI [37]: > 25 µM
GI50 [38]: 15.9 µM
TGI [38]: > 25 µM
GI50 [39]: 13.3 µM
TGI [39]: > 25 µM
GI50 [40]: > 25 µM
TGI [40]: > 25 µM
GI50 [41]: > 25 µM
TGI [41]: > 25 µM
GI50 [42]: > 25 µM
TGI [42]: > 25 µM
GI50 [43]: > 25 µM
TGI [43]: > 25 µM
GI50 [44]: > 25 µM
TGI [44]: > 25 µM
GI50 [45]: > 25 µM
TGI [45]: > 25 µM
GI50 [46]: > 25 µM
TGI [46]: > 25 µM
GI50 [47]: > 25 µM
TGI [47]: > 25 µM
GI50 [48]: > 25 µM
TGI [48]: > 25 µM
GI50 [49]: > 25 µM
TGI [49]: > 25 µM
GI50 [50]: > 25 µM
TGI [50]: > 25 µM
GI50 [51]: 16.3 µM
TGI [51]: > 25 µM
GI50 [52]: > 25 µM
TGI [52]: > 25 µM
GI50 [53]: > 25 µM
TGI [53]: > 25 µM
GI50 [54]: > 25 µM
TGI [54]: > 25 µM
GI50 [55]: > 25 µM
TGI [55]: > 25 µM
GI50 [56]: > 25 µM
TGI [56]: > 25 µM
